Values quoted from earlier work in patent US7994218B2, “Simple pantoic acid ester neopentyl sulfonyl ester cyclization release prodrugs of acamprosate, compositions thereof, and methods of use” (XenoPort, Inc., priority 2007, dated 2011).

Columns and labels:
[1] = acamprosate doses about 1-2 gm per day
cocaine conditioned mice = conditions: 100 mg/kg acamprosate for 3 days

## CC(=O)NCCCS(=O)(=O)O [acamprosate, 3-(Acetylamino)propylsulfonic acid]
[1]
  time at which steady-state plasma concentration occurs post-dose: 3 to 8 h
Cocaine conditioned mice
  effect on relapse-like behavior: attenuated relapse-like behavior
